{"source": "patent US6420388B1", "about": "“Osanetant in the treatment of depression and depressive disorders” (Sanofi-Synthelabo, priority 1999, dated 2002)", "system": "major depressive disorders", "assay": "Effect of osanetant on major depressive disorders in patients", "assay_type": "in vivo, human", "details": "patients 18 to 65 years of age with major depressive disorders; osanetant 200 mg/day for about 6 weeks", "experimental": "The effect of osanetant on major depressive disorders has been investigated in patients of between 18 and 65 years of age. The patients were given osanetant (200 mg/day) for a period of about 6 weeks.", "data": [{"smiles": "CC(=O)N(C)C1(c2ccccc2)CCN(CCC[C@]2(c3ccc(Cl)c(Cl)c3)CCCN(C(=O)c3ccccc3)C2)CC1", "note": "[osanetant, (R)-(+)-N-[(3-(1-benzoyl-3-(3,4-dichlorophenyl)piperidin-3-yl)propyl)-4-phenylpiperidin-4-yl]-N-methyl acetamide]", "values": [{"measurement": "scores on the Hamilton scale (improvement in the depressive syndrome)", "result": "significant reduction"}]}]}
